# Measured values reported in patent US20230053540A1, “TREATMENT OF LIVER INJURY” (Massachusetts Institute of Technology, priority 2019, published 2023).
# System: hepatocytes
# Assay: Seq-Well scRNA-Seq of hepatocytes after APAP overdose (signature scores, DEG vs untreated)
# Format: in vivo, mouse
# Conditions: A6 vs UT
compound,measurement,value
"CC(=O)Nc1ccc(O)cc1 [APAP, acetaminophen]",Gstz1 pct.1,0.73
same,Gtf2a2 A6logFC,0.2792
same,Gtf2a2 avg_logFC,0.2792
same,Gtf2a2 pct.1,0.379
same,Gtpbp4 avg_logFC,0.4822
same,Gtpbp4 pct.1,0.477
same,Gulo avg_logFC,−0.8017
same,H2-Ab1 avg_logFC,0.461
same,H2-Ab1 pct.1,0.158
same,H2-D1 A6logFC,0.2865
same,H2-D1 avg_logFC,0.2865
same,H2-D1 pct.1,0.766
same,H2-Eb1 avg_logFC,0.3279
same,H2-Eb1 pct.1,0.105
same,H3f3b avg_logFC,0.7029
same,H6pd avg_logFC,0.3437
same,H6pd pct.1,0.623
same,Haao avg_logFC,−0.5912
same,Hacl1 avg_logFC,−0.7069
same,Hagh avg_logFC,−0.674
same,Hba-a1 avg_logFC,0.735
same,Hba-a2 avg_logFC,0.5535
same,Hbb-bs avg_logFC,2.862
same,Hbb-bt avg_logFC,1.43
same,Hdac11 avg_logFC,−0.3368
same,Hdac11 pct.1,0.1
same,Hdlbp avg_logFC,0.3457
same,Hdlbp pct.1,0.737
same,Heatr1 avg_logFC,0.406
same,Heatr1 pct.1,0.291
same,Hebp1 avg_logFC,−0.6354
same,Hectd1 A6logFC,0.308
same,Hectd1 avg_logFC,0.308
same,Hectd1 pct.1,0.547
same,Herc1 A6logFC,0.2562
same,Herc1 avg_logFC,0.2562
same,Herc1 pct.1,0.246
same,Herc4 A6logFC,0.2675
same,Herc4 avg_logFC,0.2675
same,Herc4 pct.1,0.332
same,Herpud1 avg_logFC,−0.4976
same,Herpud1 pct.1,0.535
same,Hes6 avg_logFC,−0.5613
same,Hgd avg_logFC,−0.7586
same,Hibadh avg_logFC,−0.4994
same,Hibadh pct.1,0.542
same,Hic2 avg_logFC,0.2898
same,Hic2 pct.1,0.15
same,Hif1a avg_logFC,0.5169
same,Hilpda avg_logFC,0.7786
same,Hint1 avg_logFC,−0.6739
same,Hint2 avg_logFC,−0.4243
same,Hint2 pct.1,0.425
same,Hipk1 A6logFC,0.2916
same,Hipk1 avg_logFC,0.2916
same,Hipk1 pct.1,0.337
same,Hmgcr A6logFC,0.4167
same,Hmgcr avg_logFC,0.4167
same,Hmgcr pct.1,0.425
same,Hmox1 avg_logFC,1.348
same,Hnf4a avg_logFC,0.8791
same,Hnrnpdl avg_logFC,0.398
same,Hnrnpdl pct.1,0.406
same,Hnrnpu A6logFC,0.3394
same,Hnrnpu avg_logFC,0.3394
same,Hnrnpu pct.1,0.625
same,Hpd avg_logFC,−0.5182
same,Hpgd avg_logFC,−0.3878
same,Hpgd pct.1,0.115
same,Hpn A6logFC,−0.2686
same,Hpn avg_logFC,−0.2686
same,Hpn pct.1,0.406
same,Hpx avg_logFC,−0.3033
same,Hpx pct.1,0.988
same,Hsbp1 A6logFC,−0.2867
same,Hsd3b5 avg_logFC,−1.07
same,Hsd17b13 avg_logFC,0.6808
same,Hsp90ab1 avg_logFC,0.3227
same,Hsp90ab1 pct.1,0.916
same,Hspb8 avg_logFC,0.6339
same,Iah1 A6logFC,−0.293
same,Iah1 avg_logFC,−0.293
same,Iah1 pct.1,0.446
same,Ier5 avg_logFC,0.289
same,Ier5 pct.1,0.134
same,Ifitm3 avg_logFC,−0.4251
same,Ifitm3 pct.1,0.587
same,Igfbp2 avg_logFC,−0.299
same,Igfbp2 pct.1,0.68
same,Iigp1 avg_logFC,0.7688
same,Il1b avg_logFC,0.7429
same,Il1r1 avg_logFC,1.245
same,Il4ra avg_logFC,0.2574
same,Il4ra pct.1,0.248
same,Il6st avg_logFC,0.3168
same,Il6st pct.1,0.411
same,Il13ra1 avg_logFC,0.2785
same,Il13ra1 pct.1,0.294
same,Impad1 A6logFC,0.3227
same,Impad1 avg_logFC,0.3227
same,Impad1 pct.1,0.391
same,Insig2 avg_logFC,0.67
same,Iqgap1 avg_logFC,0.4554
same,Iqgap1 pct.1,0.162
same,Itgb2 avg_logFC,0.2723
same,Itgb2 pct.1,0.105
same,Itih2 avg_logFC,0.5011
same,Ivns1abp A6logFC,0.3566
same,Jak1 avg_logFC,0.6039
same,Jmjd1c avg_logFC,0.6366
same,Kctd3 avg_logFC,0.2608
same,Kctd3 pct.1,0.239
same,Kdelr2 A6logFC,0.3977
same,Kdelr2 avg_logFC,0.3977
same,Kdelr2 pct.1,0.484
same,Kdm5a A6logFC,0.3514
same,Kdm5a avg_logFC,0.3514
same,Kdm5a pct.1,0.308
same,Khk avg_logFC,−0.4915
same,Khk pct.1,0.702
same,Kif1b avg_logFC,0.3718
same,Kif1b pct.1,0.527
same,Kif5b avg_logFC,0.5012
same,Kif5b pct.1,0.494
same,Kif21a A6logFC,0.4042
same,Klf3 A6logFC,0.2674
same,Klf3 avg_logFC,0.2674
same,Klf3 pct.1,0.301
same,Klf6 avg_logFC,0.7324
same,Klf15 avg_logFC,−0.4518
same,Klf15 pct.1,0.208
same,Kmo avg_logFC,−0.3844
same,Kmo pct.1,0.487
same,Krt8 avg_logFC,1.196
same,Krt18 avg_logFC,1.258
same,Lactb2 avg_logFC,−0.5965
same,Laptm5 avg_logFC,0.3382
same,Laptm5 pct.1,0.124
same,Lars2 avg_logFC,1.392
same,Lcn2 avg_logFC,0.4122
same,Lcn2 pct.1,0.301
same,Ldlr A6logFC,0.282
same,Ldlr avg_logFC,0.282
same,Ldlr pct.1,0.432
same,Lgals9 A6logFC,−0.27
same,Lgals9 avg_logFC,−0.27
same,Lgals9 pct.1,0.621
same,Lgmn avg_logFC,0.4846
same,Lgmn pct.1,0.246
same,Lifr avg_logFC,−0.6262
same,Lipc A6logFC,−0.2548
same,Lipc avg_logFC,−0.2548
same,Lipc pct.1,0.401
same,Litaf avg_logFC,0.3944
same,Litaf pct.1,0.451
same,Lmo4 avg_logFC,0.3205
same,Lmo4 pct.1,0.308
same,Lonp2 avg_logFC,−0.4674
same,Lonp2 pct.1,0.561
same,Lpgat1 avg_logFC,0.5952
same,Lpin2 avg_logFC,0.6867
same,Lrg1 avg_logFC,0.4908
same,Lrrc58 avg_logFC,1.001
same,Lrrc59 avg_logFC,0.3772
same,Lrrc59 pct.1,0.422
same,Lrrfip1 avg_logFC,0.4459
same,Lrrfip1 pct.1,0.37
same,Lsmd1 A6logFC,−0.3131
same,Lyst avg_logFC,0.4093
same,Lyst pct.1,0.31
same,Lyz2 avg_logFC,0.7322
same,Maff avg_logFC,0.3553
same,Maff pct.1,0.224
same,Magi3 A6logFC,0.27
same,Magi3 avg_logFC,0.27
same,Magi3 pct.1,0.303
same,Malat1 avg_logFC,0.9206
same,Malat1 pct.1,0.871
same,Man2a1 avg_logFC,0.4971
same,Map2k3 avg_logFC,0.4347
same,Map2k3 pct.1,0.427
same,Map3k2 A6logFC,0.2518
same,Map3k2 avg_logFC,0.2518
same,Map3k2 pct.1,0.265
same,Mapk6 A6logFC,0.2568
same,Mapk6 avg_logFC,0.2568
same,Mapk6 pct.1,0.303
same,Mapkapk2 A6logFC,0.3138
same,Mapkapk2 avg_logFC,0.3138
same,Mapkapk2 pct.1,0.396
same,Mat1a avg_logFC,0.7908
same,Mat2a avg_logFC,0.4826
same,Mat2a pct.1,0.487
same,Mbl1 avg_logFC,−0.713
same,Mbnl1 avg_logFC,0.4513
same,Mbnl1 pct.1,0.492
same,Mcee A6logFC,−0.3199
same,Mcl1 avg_logFC,0.5709
same,Mcl1 pct.1,0.573
same,Mcm10 avg_logFC,−0.4874
same,Mdn1 avg_logFC,0.318
same,Mdn1 pct.1,0.251
